Assay [1] concerns Citric Acid-Induced Cough in Guinea Pigs. The assay is described as follows: Citric Acid Induced Cough Model (direct antitussive activity). The assay is classed as in vivo, guinea pig. To be noted: conscious guinea pigs, inhaled citric acid (0.4% for 1 minute) cough challenge; FIG. 4. The procedure: The directed antitussive activity of the compound in question if first assessed, by a 10 to 30 minute pretreatment period by intraperitoneal injection or a 1 hour pretreatment period for oral administration. The animals (guinea pigs) are then subjected to an inhaled citric acid-induced cough challenge. Inhalation of citric acid (CA; 0.4% for 1 minute) induced 11 to 15 coughs during the exposure and 12-minute monitoring period in conscious guinea pigs.

In assay [2] the test system is Antigen-Induced Hypertussive Activity to Citric Acid in Guinea Pigs. The assay is described as follows: Antigen-Induced Hypertussive Model. To be noted: sensitized guinea pigs exposed to inhaled ovalbumin. It is filed as in vivo, guinea pig. The procedure: The effects of the compound are then assessed on the hypertussive response that occurs 72 hours post aerosol exposure to antigen or LTD4 exposure. Treatment of the animals occurs with the drug prior and/or after antigen or LTD4 challenge, but not on the day of citric acid challenge. Inhalation of citric acid (CA; 0.4% for 1 minute) induced 11 to 15 coughs during the exposure and 12-minute monitoring period in conscious guinea pigs.

Assay [3] deals with LTD4-induced hypertussive response in the Guinea Pig. The assay is described as follows: LTD4-Induced Hypertussive Model. To be noted: oral 30 mg/kg b.i.d.; LTD4 inhalation 10 ug/ml for 1 minute; 72 hours after exposure. The assay is classed as in vivo. Here is the method: The effects of the compound are then assessed on the hypertussive response that occurs 72 hours post aerosol exposure to antigen or LTD4 exposure. Treatment of the animals occurs with the drug prior and/or after antigen or LTD4 challenge, but not on the day of citric acid challenge. Similarly, inhalation of LTD4 (10 ug/ml for 1 minute) increased cough incidence and airway esoinophiles 72 hours after exposure. Oral treatment with Compound I (30 mg/kg, b.i.d.), blocked the LTD4-induced esoinophilia, and normalized the cough response, as shown in FIG. 5 herein.

Consider 1 compound from patent US20040097473A1, “Use of p38 inhibitors for the treatment of smoke inhalation” (priority 2003, published 2004).

Regarding `COc1nccc(-c2c(-c3ccc(F)cc3)ncn2[C@H]2CC[C@H](O)CC2)n1` [Compound I, trans-1-(4-Hydroxycyclohexyl)-4-(4-fluorophenyl)-5-[(2-methoxy)pyrimidin-4-yl]imidazole], the direct antitussive effect entry in assay [1] is “no direct antitussive effect”. Besides, in assay [2] (bronchoalveolar lavage), the airway eosinophilia result is listed as “reduce airway eosinophilia”. Further, the “hypertussive state (citric acid-induced cough incidence)” value in assay [2] (citric acid challenge 72 hours post antigen) is listed as “normalizes the hypertussive state”. Further, in assay [3], the LTD4-induced eosinophilia entry is recorded as “blocked” and the cough response entry is “normalized”.
